In patent US20240252506A1 (Hoffmann-La Roche Inc., priority 2021, published 2024):
In brackets after ≈: the same amount, converted by molar mass.

The compounds below were run on Escherichia coli ATCC 25922 (assay: Minimal Inhibitory Concentration (MIC) determination, broth microdilution (CLSI M07-A10)). Conditions: Escherichia coli, ATCC25922, strain Escherichia coli ATCC 25922, 18-24 hours at 35±2° C., lowest concentration for complete growth inhibition (no visible growth), read-out: Escherichia coli growth inhibition MIC.
Assay type: cell-based
Procedure, shortened: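 MIC read visually as the lowest concentration with complete growth inhibition after 18-24 h at 35±2° C, ambient air. Method follows CLSI M07-A10 broth microdilution, two-fold compound series, inoculum standardized to 0.5 McFarland then diluted 1:200.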

Row | Compound | MIC [µg/mL]
1 | O=C(O)C(F)(F)F.O=C1COc2ncc(N3CC4(CCN(CC5Cc6cc7nc(CNC(=O)[C@H]8CCCN8)[nH]c7c(F)c6C5)CC4)OC3=O)nc2N1 (stereo partly drawn) [Example 161, (2R)-N-[[8-fluoro-6-[[2-oxo-3-(3-oxo-4H-pyrazino[2,3-b][1,4]oxazin-6-yl)-1-oxa-3,8-diazaspiro[4.5]decan-8-yl]methyl]-1,5,6,7-tetrahydrocyclopenta[f]benzimidazol-2-yl]methyl]pyrrolidine-2-carboxamide; 2,2,2-trifluoroacetic acid] | 0.25
2 | O=C1COc2ncc(N3CC4(CCN(CC5Cc6c(c(F)c7c(nnn7CCNC(=O)[C@H]7CCCN7)c6F)C5)CC4)OC3=O)nc2N1 (stereo partly drawn) [Example 162, (2R)-N-[2-[4,8-difluoro-6-[[2-oxo-3-(3-oxo-4H-pyrazino[2,3-b][1,4]oxazin-6-yl)-1-oxa-3,8-diazaspiro[4.5]decan-8-yl]methyl]-6,7-dihydro-5H-cyclopenta[f]benzotriazol-1-yl]ethyl]pyrrolidine-2-carboxamide] | 1 (≈ 1.53 µM)
3 | O=C1COc2ncc(N3CC4(CCN(CC5Cc6c(c(F)c7nn(CCNC(=O)[C@H]8C[C@H](O)CN8)nc7c6F)C5)CC4)OC3=O)nc2N1 [Example 163, (2R,4S)-N-[2-[4,8-difluoro-6-[[2-oxo-3-(3-oxo-4H-pyrazino[2,3-b][1,4]oxazin-6-yl)-1-oxa-3,8-diazaspiro[4.5]decan-8-yl]methyl]-6,7-dihydro-5H-cyclopenta[f]benzotriazol-2-yl]ethyl]-4-hydroxy-pyrrolidine-2-carboxamide] | 0.5 (≈ 0.748 µM)
4 | O=C1COc2ncc(N3CC4(CCN(CC5Cc6c(c(F)c7c(nnn7CCNC(=O)[C@H]7C[C@H](O)CN7)c6F)C5)CC4)OC3=O)nc2N1 (stereo partly drawn) [Example 164, (2R,4S)-N-[2-[4,8-difluoro-6-[[2-oxo-3-(3-oxo-4H-pyrazino[2,3-b][1,4]oxazin-6-yl)-1-oxa-3,8-diazaspiro[4.5]decan-8-yl]methyl]-6,7-dihydro-5H-cyclopenta[f]benzotriazol-1-yl]ethyl]-4-hydroxy-pyrrolidine-2-carboxamide] | 2 (≈ 2.99 µM)
5 | CN(CCn1nc2c(F)c3c(c(F)c2n1)CC(CN1CCC2(CC1)CN(c1cnc4c(n1)NC(=O)CO4)C(=O)O2)C3)C(=O)CN.O=CO [Example 165, 2-Amino-N-[2-[4,8-difluoro-6-[[2-oxo-3-(3-oxo-4H-pyrazino[2,3-b][1,4]oxazin-6-yl)-1-oxa-3,8-diazaspiro[4.5]decan-8-yl]methyl]-6,7-dihydro-5H-cyclopenta[f]benzotriazol-2-yl]ethyl]-N-methyl-acetamide;formic acid] | 0.5
6 | CN(C)CC(=O)NCCn1nnc2c(F)c3c(c(F)c21)CC(CN1CCC2(CC1)CN(c1cnc4c(n1)NC(=O)CO4)C(=O)O2)C3 (stereo not shown) [Example 168, N-[2-[4,8-difluoro-6-[[2-oxo-3-(3-oxo-4H-pyrazino[2,3-b][1,4]oxazin-6-yl)-1-oxa-3,8-diazaspiro[4.5]decan-8-yl]methyl]-6,7-dihydro-5H-cyclopenta[f]benzotriazol-1-yl]ethyl]-2-(dimethylamino)acetamide] | 0.5 (≈ 0.78 µM)
7 | CN[C@H](C)C(=O)NCc1nc2cc3c(c(F)c2o1)CC(CN1CCC2(CC1)CN(c1cnc4c(n1)NC(=O)CO4)C(=O)O2)C3 (stereo partly drawn) [Example 169, (2R)—N-[[8-Fluoro-6-[[2-oxo-3-(3-oxo-4H-pyrazino[2,3-b][1,4]oxazin-6-yl)-1-oxa-3,8-diazaspiro[4.5]decan-8-yl]methyl]-6,7-dihydro-5H-cyclopenta[f][1,3]benzoxazol-2-yl]methyl]-2-(methylamino)propanamide] | 1 (≈ 1.64 µM)
